Assay results: ChEMBL document CHEMBL2073895, “Charged amino acids in the transmembrane domains are involved in the determination of the substrate specificity of rat Mrp2” (Mol Pharmacol, 2001)

How the values were obtained:
Assay type in all cases: functional, cell membranes, Membrane vesicle
[1] = molecular target: T1, ATP-binding cassette sub-family C member 2 (Rattus norvegicus, UniProt Q63120); experiment: TP_TRANSPORTER: inhibition of E217betaG uptake (E217betaG: 0.055 uM) in membrane vesicles from Mrp2-expressing Sf9 cells
[2] = molecular target: T1, ATP-binding cassette sub-family C member 2; experiment: TP_TRANSPORTER: inhibition of DNP-SG uptake (DNP-SG: 0.05 uM) in membrane vesicles from Mrp2-expressing Sf9 cells
[3] = substrate: C[C@]12CC[C@@H]3c4ccc(O)cc4CC[C@H]3[C@@H]1CC[C@@H]2O[C@@H]1O[C@H](C(=O)O)[C@@H](O)[C@H](O)[C@H]1O; experiment: TP_TRANSPORTER: uptake in membrane vesicles from Mrp2-expressing Sf9 cells

N[C@@H](CCC(=O)N[C@H](CSc1ccc([N+](=O)[O-])cc1[N+](=O)[O-])C(=O)NCC(=O)O)C(=O)O showed an IC50 [1] of 19.3 µM.

C[C@]12CC[C@@H]3c4ccc(O)cc4CC[C@H]3[C@@H]1CC[C@@H]2O[C@@H]1O[C@H](C(=O)O)[C@@H](O)[C@H](O)[C@H]1O [ESTRADIOL 17B GLUCURONIDE] gave an IC50 [2] of 13.3 µM.

CCCCC/C=C\C\C=C/C=C/C=C/[C@@H](SC[C@@H](NC(=O)CC[C@H](N)C(=O)O)C(=O)NCC(=O)O)[C@@H](O)CCCC(=O)O [LEUKOTRIEN C4] showed an IC50 [1] of 0.65 µM.

In the case of CCCCC/C=C\C\C=C/C=C/C=C/[C@@H](SC[C@H](N)C(=O)O)[C@@H](O)CCCC(=O)O [LEUKOTRIEN E4], the IC50 [1] is reported as 9.83 µM.

CCCCC/C=C\C\C=C/C=C/C=C/[C@@H](SC[C@H](NC(=O)CC[C@@H](N)C(=O)O)C(=O)O)[C@@H](O)CCCC(=O)O [LEUKOTRIEN F4] showed an IC50 [1] of 10 µM.

For CCCCC/C=C\C\C=C/C=C/C=C/[C@@H](SC[C@H](N)C(=O)NCC(=O)O)[C@@H](O)CCCC(=O)O [LEUKOTRIENE D4], the IC50 [1] was 5.48 µM.

CN(C)C(=O)CCSC(SCCC(=O)O)c1cccc(/C=C/c2ccc3ccc(Cl)cc3n2)c1 (stereo not drawn) [MK-571] showed an IC50 [1] of 2.62 µM.

B1: ATP-binding cassette sub-family C member 2 (Rattus norvegicus) (protein)
chain: MDKFCNSTFWDLSLLESPEADLPLCFEQTVLVWIPLGFLWLLAPWQLYSVYRSRTKRSSITKFYLAKQVFVVFLLILAAIDLSLALTEDTGQATVPPVRYTNPILYLCTWLLVLAVQHSRQWCVRKNSWFLSLFWILSVLCGVFQFQTLIRALLKDSKSNMAYSYLFFVSYGFQIVLLILTAFSGPSDSTQTPSVTASFLSSITFSWYDRTVLKGYKHPLTLEDVWDIDEGFKTRSVTSKFEAAMTKDLQKARQAFQRRLQKSQRKPEATLHGLNKKQSQSQDVLVLEEAKKKSEKTTKDYPKSWLIKSLFKTFHVVILKSFILKLIHDLLVFLNPQLLKLLIGFVKSSNSYVWFGYICAILMFAVTLIQSFCLQSYFQHCFVLGMCVRTTVMSSIYKKALTLSNLARKQYTIGETVNLMSVDSQKLMDATNYMQLVWSSVIQITLSIFFLWRELGPSILAGVGVMVLLIPVNGVLATKIRNIQVQNMKNKDKRLKIMNEILSGIKILKYFAWEPSFQEQVQGIRKKELKNLLRFGQLQSLLIFILQITPILVSVVTFSVYVLVDSANVLNAEKAFTSITLFNILRFPLSMLPMVTSSILQASVSVDRLERYLGGDDLDTSAIRRVSNFDKAVKFSEASFTWDPDLEATIQDVNLDIKPGQLVAVVGTVGSGKSSLVSAMLGEMENVHGHITIQGSTAYVPQQSWIQNGTIKDNILFGSEYNEKKYQQVLKACALLPDLEILPGGDMAEIGEKGINLSGGQKQRVSLARAAYQDADIYILDDPLSAVDAHVGKHIFNKVVGPNGLLAGKTRIFVTHGIHFLPQVDEIVVLGKGTILEKGSYRDLLDKKGVFARNWKTFMKHSGPEGEATVNNDSEAEDDDDGLIPTMEEIPEDAASLAMRRENSLRRTLSRSSRSSSRRGKSLKNSLKIKNVNVLKEKEKEVEGQKLIKKEFVETGKVKFSIYLKYLQAVGWWSILFIILFYGLNNVAFIGSNLWLSAWTSDSDNLNGTNNSSSHRDMRIGVFGALGLAQGICLLISTLWSIYACRNASKALHGQLLTNILRAPMRFFDTTPTGRIVNRFSGDISTVDDLLPQTLRSWMMCFFGIAGTLVMICMATPVFAIIIIPLSILYISVQVFYVATSRQLRRLDSVTKSPIYSHFSETVTGLPIIRAFEHQQRFLAWNEKQIDINQKCVFSWITSNRWLAIRLELVGNLVVFCSALLLVIYRKTLTGDVVGFVLSNALNITQTLNWLVRMTSEAETNIVAVERISEYINVENEAPWVTDKRPPADWPRHGEIQFNNYQVRYRPELDLVLKGITCNIKSGEKVGVVGRTGAGKSSLTNCLFRILESAGGQIIIDGIDVASIGLHDLRERLTIIPQDPILFSGSLRMNLDPFNKYSDEEVWRALELAHLRSFVSGLQLGLLSEVTEGGDNLSIGQRQLLCLGRAVLRKSKILVLDEATAAVDLETDSLIQTTIRKEFSQCTVITIAHRLHTIMDSDKIMVLDNGKIVEYGSPEELLSNRGSFYLMAKEAGIENVNHTEL
With B1 the Km [3] was 3.91 µM.
